This is an account of results in patent US20250382305A1 (PTC THERAPEUTICS, INC., priority 2022, published 2025).

Assay [1] has as its system Total ATXN3 (tATXN3) protein. The assay is described as follows: Endogenous Total ATXN3 (tATXN3) Protein Assay (MSD immunoassay of cell lysates). As to conditions: average IC50, total ATXN3 protein in cell lysate after 48 h with compound (Table 1). Type of assay: cell-based. The procedure, abridged: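 By electrochemiluminescent MSD sandwich immunoassay (mouse monoclonal capture, rabbit monoclonal and SULFO-TAG anti-rabbit detection), endogenous ATXN3 was quantified in lysates of cells treated 48 h at 37° C at 10,000 cells/well. Treatment used a 7-point 3.16-fold duplicate dilution series, with average IC50 grouped into star categories.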

Another assay relates to ATXN3 pre-mRNA. The assay is described as follows: RT-qPCR Assay to Quantify Exon 4 Skipping in ATXN3 pre-mRNA in Cells. Type of assay: cell-based. As to conditions: percent exon 4 skipping in ATXN3 pre-mRNA, RT-qPCR of cell lysates; average IC50. The procedure, abridged: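 IC50 derives from a dose-response fit of percent exon 4 skipping, quantified by RT-qPCR on crude lysates. Compounds tested as 7-point 3.16-fold dilutions in duplicate; cells (10,000/well) were exposed for 24 h at 37 °C before lysis.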
For orientation: Real-time PCR tracks product formation cycle by cycle.

As usually defined, the IC50 is the concentration that inhibits the measured activity by half. As for “2-((1R,2R)-2-aminocyclohexyl)-N-benzyl-5-chloro-3-(prop-1-yn-1-yl)thieno[3,2-b]pyridin-7-amine and 2-((1S,2S)-2-aminocyclohexyl)-N-benzyl-5-chloro-3-(prop-1-yn-1-yl)thieno[3,2-b]pyridin-7-amine [Compound 226]”, the IC50 (in assay [1]; in the assay on ATXN3 pre-mRNA) was at most 30 nM each time.

On to `N[C@H]1CC=CC[C@@H]1c1sc2c(NCc3cccs3)cc(Cl)nc2c1C#CCCCCO` [Compound 235, 6-(2-((1S,6S)-6-aminocyclohex-3-en-1-yl)-5-chloro-7-((thiophen-2-ylmethyl)amino)thieno[3,2-b]pyridin-3-yl)hex-5-yn-1-ol], for which the IC50 (in assay [1]; in the assay with ATXN3 pre-mRNA) was at most 30 nM each time.

On to `N[C@H]1CCCC[C@@H]1c1cc2nc(Cl)cc(NCc3cccs3)c2s1` [Compound 21, 2-((1S,2S)-2-aminocyclohexyl)-5-chloro-N-(thiophen-2-ylmethyl)thieno[3,2-b]pyridin-7-amine], for which the IC50 (in assay [1]; in the assay with ATXN3 pre-mRNA) was 30 to 300 nM each time.

For the compound `N[C@@H]1CC=CC[C@H]1c1sc2c(NCc3cccs3)cc(Cl)nc2c1I.N[C@H]1CC=CC[C@@H]1c1sc2c(NCc3cccs3)cc(Cl)nc2c1I` (mixture of isomers) [Compound 209, 2-((1R,6R)-6-aminocyclohex-3-en-1-yl)-5-chloro-3-iodo-N-(thiophen-2-ylmethyl)thieno[3,2-b]pyridin-7-amine and 2-((1S,6S)-6-aminocyclohex-3-en-1-yl)-5-chloro-3-iodo-N-(thiophen-2-ylmethyl)thieno[3,2-b]pyridin-7-amine], the IC50 (in assay [1]; in the assay on ATXN3 pre-mRNA) was at most 30 nM in each case.

Take “2-((1R,6R)-6-aminocyclohex-3-en-1-yl-2,2,3,4,5,5-d6)-3,5-dichloro-N-(furan-2-ylmethyl)thieno[3,2-b]pyridin-7-amine and 2-((1S,6S)-6-aminocyclohex-3-en-1-yl-2,2,3,4,5,5-d6)-3,5-dichloro-N-(furan-2-ylmethyl)thieno[3,2-b]pyridin-7-amine [Compound 180]”: the IC50 (in assay [1]; with ATXN3 pre-mRNA) was at most 30 nM throughout.

On to `CN[C@H]1CCCC[C@@H]1c1sc2c(NCc3cccs3)cc(Cl)nc2c1C#CCCCO` [Compound 264, 5-(5-chloro-2-((1S,2S)-2-(methylamino)cyclohexyl)-7-((thiophen-2-ylmethyl)amino)thieno[3,2-b]pyridin-3-yl)pent-4-yn-1-ol], for which the IC50 in assay [1] is 30 to 300 nM; in the assay on ATXN3 pre-mRNA, at most 30 nM.

In the case of “2-((3R,4S)-3-aminotetrahydro-2H-pyran-4-yl)-5-chloro-3-(prop-1-yn-1-yl)-N-(thiophen-2-ylmethyl)thieno[3,2-b]pyridin-7-amine and 2-((3S,4R)-3-aminotetrahydro-2H-pyran-4-yl)-5-chloro-3-(prop-1-yn-1-yl)-N-(thiophen-2-ylmethyl)thieno[3,2-b]pyridin-7-amine [Compound 227]”, the IC50 (in assay [1]; in the assay on ATXN3 pre-mRNA) was at most 30 nM throughout.

Turning to `N[C@@H]1CCCO[C@H]1c1sc2c(NCc3ccccc3)cc(Cl)nc2c1Br` [Compound 113, 2-((2R,3R)-3-aminotetrahydro-2H-pyran-2-yl)-N-benzyl-3-bromo-5-chlorothieno[3,2-b]pyridin-7-amine], the IC50 (in assay [1]; with ATXN3 pre-mRNA) was above 1000 nM throughout.

As for `Cc1c([C@H]2COCC[C@@H]2N)sc2c(NCc3ccco3)cc(Cl)nc12` [Compound 260, 2-((3R,4S)-4-aminotetrahydro-2H-pyran-3-yl)-5-chloro-N-(furan-2-ylmethyl)-3-methylthieno[3,2-b]pyridin-7-amine], the IC50 in assay [1] was 30 to 300 nM; with ATXN3 pre-mRNA, at most 30 nM.

`N[C@H]1CCC[C@@H]1c1sc2c(NCc3ccco3)cc(Cl)nc2c1Cl` [Compound 117, 2-((1S,2S)-2-aminocyclopentyl)-3,5-dichloro-N-(furan-2-ylmethyl)thieno[3,2-b]pyridin-7-amine]: the IC50 (in assay [1]; with ATXN3 pre-mRNA) was at most 30 nM in each case.

As to `N[C@H]1CCCCC[C@@H]1c1sc2c(NCc3cccs3)cc(Cl)nc2c1-c1ccccc1` [Compound 141, 2-((1S,2S)-2-aminocycloheptyl)-5-chloro-3-phenyl-N-(thiophen-2-ylmethyl)thieno[3,2-b]pyridin-7-amine], the IC50 (in assay [1]; in the assay with ATXN3 pre-mRNA) was above 1000 nM in each case.

As to `CC#CCNc1cc(Cl)nc2c(Br)c([C@H]3OCCC[C@@H]3N)sc12` [Compound 343, 2-((2S,3S)-3-aminotetrahydro-2H-pyran-2-yl)-3-bromo-N-(but-2-yn-1-yl)-5-chlorothieno[3,2-b]pyridin-7-amine], the half-maximal inhibitory concentration (IC50) (in assay [1]; in the assay on ATXN3 pre-mRNA) was 30 to 300 nM in each case.

`NC1CCCOC1c1sc2c(NCc3ccccc3F)cc(Cl)nc2c1Cl` (mixture of isomers) [Compound 24, 2-((2R,3R)-3-aminotetrahydro-2H-pyran-2-yl)-3,5-dichloro-N-(2-fluorobenzyl)thieno[3,2-b]pyridin-7-amine and 2-((2S,3S)-3-aminotetrahydro-2H-pyran-2-yl)-3,5-dichloro-N-(2-fluorobenzyl)thieno[3,2-b]pyridin-7-amine]: the IC50 (in assay [1]; in the assay with ATXN3 pre-mRNA) was 30 to 300 nM each time.

As to `N[C@H]1COCC[C@@H]1c1sc2c(NCc3ccco3)cc(Cl)nc2c1Br` [Compound 238, 2-((3R,4S)-3-aminotetrahydro-2H-pyran-4-yl)-3-bromo-5-chloro-N-(furan-2-ylmethyl)thieno[3,2-b]pyridin-7-amine], the IC50 was at most 30 nM in assay [1] and 30 to 300 nM in the assay with ATXN3 pre-mRNA.

As for `N[C@H]1CCC[C@H]1c1cc2nc(Cl)cc(NCc3cccs3)c2s1` [Compound 111, 2-((1R,2S)-2-aminocyclopentyl)-5-chloro-N-(thiophen-2-ylmethyl)thieno[3,2-b]pyridin-7-amine], the 50% inhibitory concentration (IC50) in assay [1] is above 1000 nM; in the assay on ATXN3 pre-mRNA, 300 to 1000 nM.

Take `CC#CCNc1cc(Cl)nc2c(I)c([C@@H]3CC=CC[C@H]3N)sc12` [Compound 386, 2-((1R,6R)-6-aminocyclohex-3-en-1-yl)-N-(but-2-yn-1-yl)-5-chloro-3-iodothieno[3,2-b]pyridin-7-amine]: the IC50 (in assay [1]; in the assay on ATXN3 pre-mRNA) was 30 to 300 nM each time.

As to `N[C@H]1CC=C[C@@H](O)[C@@H]1c1sc2c(NCc3cccs3)cc(Cl)nc2c1Cl` [Compound 377, (1R,5S,6R)-5-amino-6-(3,5-dichloro-7-((thiophen-2-ylmethyl)amino)thieno[3,2-b]pyridin-2-yl)cyclohex-2-en-1-ol], the IC50 (in assay [1]; in the assay on ATXN3 pre-mRNA) was 30 to 300 nM in each case.

Turning to `N[C@@H]1CCCC(F)(F)[C@H]1c1sc2c(NCc3cccs3)cc(Cl)nc2c1Cl` [Compound 409, 2-((1S,6R)-6-amino-2,2-difluorocyclohexyl)-3,5-dichloro-N-(thiophen-2-ylmethyl)thieno[3,2-b]pyridin-7-amine], the IC50 (in assay [1]; in the assay on ATXN3 pre-mRNA) was 30 to 300 nM throughout.

For the compound `N[C@@H]1CCOC[C@H]1c1sc2c(NCc3cccs3)cc(Cl)nc2c1Cl` [Compound 405, 2-((3S,4R)-4-aminotetrahydro-2H-pyran-3-yl)-3,5-dichloro-N-(thiophen-2-ylmethyl)thieno[3,2-b]pyridin-7-amine], the concentration for half-maximal inhibition (IC50) (in assay [1]; in the assay with ATXN3 pre-mRNA) was at most 30 nM throughout.

On to `N[C@H]1CCCCCC[C@H]1c1sc2c(NCc3cccs3)cc(Cl)nc2c1Br` [Compound 102, 2-((1R,2S)-2-aminocyclooctyl)-3-bromo-5-chloro-N-(thiophen-2-ylmethyl)thieno[3,2-b]pyridin-7-amine], for which the IC50 (in assay [1]; in the assay on ATXN3 pre-mRNA) was above 1000 nM in each case.

Regarding `CC#CCNc1nc(Cl)nc2c(I)c([C@H]3CC=CC[C@@H]3N)sc12` [Compound 219, 6-((1S,6S)-6-aminocyclohex-3-en-1-yl)-N-(but-2-yn-1-yl)-2-chloro-7-iodothieno[3,2-d]pyrimidin-4-amine], the IC50 (in assay [1]; in the assay with ATXN3 pre-mRNA) was at most 30 nM each time.

Turning to `N[C@@H]1CCCCCC[C@H]1c1sc2c(NCc3cccs3)cc(Cl)nc2c1Cl` [Compound 97, 2-((1R,2R)-2-aminocyclooctyl)-3,5-dichloro-N-(thiophen-2-ylmethyl)thieno[3,2-b]pyridin-7-amine], the IC50 (in assay [1]; in the assay on ATXN3 pre-mRNA) was above 1000 nM in each case.

In the case of `CC#CCNc1cc(Cl)nc2c(C)c([C@H]3CC=CC[C@@H]3N)sc12` [Compound 306, 2-((1S,6S)-6-aminocyclohex-3-en-1-yl)-N-(but-2-yn-1-yl)-5-chloro-3-methylthieno[3,2-b]pyridin-7-amine], the IC50 (in assay [1]; in the assay on ATXN3 pre-mRNA) was 30 to 300 nM throughout.

As to `Cc1c([C@H]2CCC[C@@H]2N)sc2c(NCc3ccccc3)cc(Cl)nc12` [Compound 107, 2-((1S,2S)-2-aminocyclopentyl)-N-benzyl-5-chloro-3-methylthieno[3,2-b]pyridin-7-amine], the IC50 (in assay [1]; in the assay with ATXN3 pre-mRNA) was 300 to 1000 nM in each case.

In the case of `N[C@@H]1CCC[C@@H]1c1sc2c(NCc3cccs3)cc(Cl)nc2c1Cl` [Compound 3, 2-((1S,2R)-2-aminocyclopentyl)-3,5-dichloro-N-(thiophen-2-ylmethyl)thieno[3,2-b]pyridin-7-amine], the IC50 (in assay [1]; with ATXN3 pre-mRNA) was above 1000 nM each time.

Regarding `CC#Cc1c([C@H]2CCCC[C@@H]2N)n(C(F)F)c2c(NCc3ccco3)nc(Cl)nc12` [Compound 331, 6-((1S,2S)-2-aminocyclohexyl)-2-chloro-5-(difluoromethyl)-N-(furan-2-ylmethyl)-7-(prop-1-yn-1-yl)-5H-pyrrolo[3,2-d]pyrimidin-4-amine], the concentration for half-maximal inhibition (IC50) (in assay [1]; in the assay on ATXN3 pre-mRNA) was 30 to 300 nM throughout.
